# Laboratory results taken from patent US11083197B2, “Herbicidal composition comprising chromone derivatives and a method for weed control” (INVESTIGACIONES BIOLÓGICAS EN AGROQUÍMICOS ROSARIO S.A., priority 2015, dated 2021).
# Legend:
# [1] = tested on: green alga Chlamydomonas reinhardtii; conditions: equimolar concentrations and equal UV-A doses; cited from earlier work
# [2] = tested on: crabgrass (D. sanguinalis), barnyardgrass (E. crus-galli) and velvetleaf (A. theophrasti); test: Greenhouse postemergence spray, 4.0 kg ai/ha; assay type: in vivo
# Experimental: Aqueous solution containing commercial standard of pure compound of Formula IV was prepared and sprayed on crabgrass (D. sanguinalis), barnyardgrass (E. crus-galli) and velvetleaf (A. theophrasti). Plants were sprayed at 2-3 true leaf stage (13-16-day-old plants). For better dissolution of compounds in water AGRIDEX (1% v/v) and acetone (1% v/v) were added to spray solutions. Final rate of compounds was 4.0 kg ai ha^−1. Plant height and dry weight were measured at 11 days after spray. Results were compared with the bio herbicide pelargonic acid at 4.0 kg ai ha^−1.
smiles,measurement,setting,value
"COc1c2ccoc2cc2oc(C)cc(=O)c12 [Formula IV, 4-methoxy-7-methyl-5H-furo[3,2-g]chromen-5-one]",phototoxicity and photomutagenicity compared with bergapten,[1],much less phototoxic and photomutagenic than bergapten
same,kind of postemergence herbicidal activity,[2],by contact and non-selective
same,height and biomass of sprayed weeds versus control plants,[2]; 11 days after spray,significantly smaller
same,symptoms on treated plants,[2]; 11 days after treatment,necrotic lesions and some abnormally formed leaves
